The target in test [1] is T1, S. aureus PlsY (SaPlsY) (Staphylococcus aureus, UniProt P67164).
T1 sequence (P67164 1-202): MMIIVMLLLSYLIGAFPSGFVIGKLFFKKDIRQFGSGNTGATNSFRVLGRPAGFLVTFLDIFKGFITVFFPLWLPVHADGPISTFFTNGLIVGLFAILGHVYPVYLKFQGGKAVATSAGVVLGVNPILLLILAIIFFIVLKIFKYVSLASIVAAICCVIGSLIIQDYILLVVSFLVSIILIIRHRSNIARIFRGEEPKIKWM
The test can be described thus: biochemical. Format: E. coli FB23281 (delta plsY) membranes.

Test [2] deals with T1, S. aureus PlsY (SaPlsY). In words: biochemical. In kind it is E. coli FB23281 (delta plsY) membranes. The source holds these as a separate data set.
Another test deals with S. pneumoniae R6. In words: microbe, parasite or virus in culture. The following applies: Streptococcus pneumoniae, R6, read-out: MIC.

The structures appear in SMILES notation. ≈ marks a conversion by molar mass, not a printed value. Read-outs that look alike come from different tables or passages of the source. Bounds are passed on as bounds.

As a reminder, the IC50 is the point on the concentration scale where inhibition reaches its midpoint. A higher IC50 goes with a need for much substance. Turning to `CCCCCCCCCCCCCCCC(=O)NS(=O)(=O)OC1CCNCC1` [compound 6], on S. aureus PlsY (SaPlsY) [1], the IC50 was > 100 µM.
For the compound `CCCCCCCCCCCCCCCC(=O)NS(=O)(=O)Oc1ccc(CCN)cc1` [compound 16], at S. aureus PlsY (SaPlsY) [2], the IC50 was > 100 µM.
Take `CCCCCCCCCCCCCCCC(=O)NS(=O)(=O)Oc1ccc(-c2ccc([N+](=O)[O-])cc2)cc1` [compound 18, 4'-nitrobiphenyl-4-yl palmitoylsulfamate]: the MIC with S. pneumoniae R6 came out at 100 µg/mL (≈ 188 µM).
On to `CCCCCCCCCCCCCCCC(=O)NS(=O)(=O)Oc1ccc2ncccc2c1` [compound 20, Quinolin-6-yl palmitoylsulfamate], for which the MIC in the test on S. pneumoniae R6 was > 200 µg/mL.
Same read-out and setting: the value for `CCCCCCCCCCCCCCCC(=O)NS(=O)(=O)Oc1ccc(CC(=O)OC)cc1` [compound 14, Methyl 2-(4-(N-palmitoylsulfamoyloxy)phenyl)acetate] was 100 µg/mL (≈ 207 µM); that for `CCCCCCCCCCCCCCCC(=O)NS(=O)(=O)Oc1ccc2c(OS(N)(=O)=O)coc2c1` [compound 21] was > 200 µg/mL; that for `CCCCCCCCCCCCCCCC(=O)NS(=O)(=O)Oc1ccc(C(=O)OCC)cc1` [compound 15, Ethyl 4-(N-palmitoylsulfamoyloxy)benzoate] was 200 µg/mL (≈ 414 µM).
On the same count and under the same terms, then `CCCCCCCCCCCCCCCC(=O)NS(=O)(=O)Oc1ccc2c(c1)OCO2` [compound 19, Benzo[d][1,3]dioxol-5-yl palmitoylsulfamate], with 200 µg/mL (≈ 439 µM).

The values above are taken from article PMC3471809 (Bioorganic & medicinal chemistry, 2012).
